Source: patent US20260356851A1, “TRICYCLIC COMPOUNDS AND USES THEREOF” (HUTCHMED LIMITED, priority 2023, published 2026)

Experiments:
Format in all cases: cell-based
[1] = target: T1, pERK1/2 (Thr202/Tyr204), NCI-1H358 (KRAS G12C) (Homo sapiens, UniProt P01116, G12C); experiment: Assay of intracellular pERK1/2 (Thr202/Tyr204) phosphorylation in NCI-H358 cells (KRAS G12C); details: pERK1/2, 2 days, read-out: NCI-H358 (KRAS G12C) IC50
T1 construct: pERK1/2 HTRF read-out
How it was run: (§1)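 HTRF detection of Thr202/Tyr204-phosphorylated ERK1/2 (665/615 nm ratio) in lysates from cells treated 2 days with serially 3-fold diluted compound.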

[2] = target: T2, pERK1/2 (Thr202/Tyr204), NCI-1H441 (KRAS G12V) (Homo sapiens, UniProt P01116, G12V); experiment: Assay of intracellular pERK1/2 (Thr202/Tyr204) phosphorylation in NCI-H441 cells (KRAS G12V); details: pERK1/2, 2 days, read-out: NCI-H441 (KRAS G12V) IC50
T2 construct: pERK1/2 HTRF read-out
T2 sequence (P01116 1-188 isoform P01116-2 G12V): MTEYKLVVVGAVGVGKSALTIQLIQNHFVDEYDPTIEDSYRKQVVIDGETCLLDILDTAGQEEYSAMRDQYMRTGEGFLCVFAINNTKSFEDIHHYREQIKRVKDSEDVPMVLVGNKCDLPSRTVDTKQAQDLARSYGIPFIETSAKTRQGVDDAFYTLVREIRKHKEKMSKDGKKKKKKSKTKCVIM
How it was run: as §1

[3] = target: T3, pERK1/2 (Thr202/Tyr204), PANC-1 (KRAS G121D) (Homo sapiens, UniProt P01116, G12D); experiment: Assay of intracellular pERK1/2 (Thr202/Tyr204) phosphorylation in PANC-1 cells (KRAS G12D); details: pERK1/2, 2 days, read-out: PANC-1 (KRAS G12D) IC50
T3 construct: pERK1/2 HTRF read-out
T3 sequence (P01116 1-188 isoform P01116-2 G12D): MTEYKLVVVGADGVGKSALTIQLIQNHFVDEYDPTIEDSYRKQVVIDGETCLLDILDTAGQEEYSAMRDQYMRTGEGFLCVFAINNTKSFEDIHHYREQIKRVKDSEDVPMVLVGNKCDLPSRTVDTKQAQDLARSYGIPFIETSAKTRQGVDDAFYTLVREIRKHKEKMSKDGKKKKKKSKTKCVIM
How it was run: as §1

T1 sequence (P01116 1-188 isoform P01116-2 G12C): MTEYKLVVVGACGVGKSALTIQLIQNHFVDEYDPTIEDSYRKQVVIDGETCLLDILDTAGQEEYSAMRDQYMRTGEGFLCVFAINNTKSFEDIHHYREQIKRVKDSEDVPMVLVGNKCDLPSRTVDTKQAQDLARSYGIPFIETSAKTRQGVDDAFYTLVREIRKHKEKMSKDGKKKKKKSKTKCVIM

Row | SMILES | IC50 [1] [nM] | IC50 [2] [nM] | IC50 [3] [nM]
1 | CC(c1cccnc1N)N1c2nc(OC[C@@]34CCCN3C[C@H](F)C4)nc3c(F)c(-c4cc(N)cc(Cl)c4C(F)(F)F)nc(c23)OC[C@@H]1C (single isomer, unassigned) [Compound 270, 3-((R or S)-1-((S)-5-(5-amino-3-chloro-2-(trifluoromethyl)phenyl)-4-fluoro-2-(((2R,7aS)-2-fluorotetrahydro-1H-pyrrolizin-7a(5H)-yl)methoxy)-9-methyl-8,9-dihydro-10H-7-oxa-1,3,6,10-tetraazacyclohepta[de]naphthalen-10-yl)ethyl)pyridin-2-amine] | 0.3 | 0.7 | 0.3
2 | CC(c1cccnc1N)N1c2nc(OC[C@@]34CCCN3C[C@H](F)C4)nc3c(F)c(-c4cc(N)cc(Cl)c4C(F)(F)F)nc(c23)OC[C@@H]1C (single isomer, unassigned) [Compound 271, 3-((R or S)-1-((S)-5-(5-amino-3-chloro-2-(trifluoromethyl)phenyl)-4-fluoro-2-(((2R,7aS)-2-fluorotetrahydro-1H-pyrrolizin-7a(5H)-yl)methoxy)-9-methyl-8,9-dihydro-10H-7-oxa-1,3,6,10-tetraazacyclohepta[de]naphthalen-10-yl)ethyl)pyridin-2-amine] | 66 | > 100 | > 100
3 | CC(c1cccnc1N)N1c2nc(OC[C@@]34CCCN3C[C@H](F)C4)nc3c(F)c(-c4cc(N)c(F)c(Cl)c4C(F)(F)F)nc(c23)OC[C@@H]1C (single isomer, unassigned) [Compound 272, 3-((R or S)-1-((S)-5-(5-amino-3-chloro-4-fluoro-2-(trifluoromethyl)phenyl)-4-fluoro-2-(((2R,7aS)-2-fluorotetrahydro-1H-pyrrolizin-7a(5H)-yl)methoxy)-9-methyl-8,9-dihydro-10H-7-oxa-1,3,6,10-tetraazacyclohepta[de]naphthalen-10-yl)ethyl)pyridin-2-amine] | 57 | > 100 | > 100
4 | C#Cc1c(F)ccc2cc(O)cc(-c3nc4c5c(nc(OC[C@@]67CCCN6C[C@H](F)C7)nc5c3F)N(C(C)c3cccnc3N)[C@@H](C)CO4)c12 (single isomer, unassigned) [Compound 273, 4-((S)-10-((R or S)-1-(2-aminopyridin-3-yl)ethyl)-4-fluoro-2-(((2R,7aS)-2-fluorotetrahydro-1H-pyrrolizin-7a(5H)-yl)methoxy)-9-methyl-9,10-dihydro-8H-7-oxa-1,3,6,10-tetraazacyclohepta[de]naphthalen-5-yl)-5-ethynyl-6-fluoronaphthalen-2-ol] | 0.5 | 1 | 0.4
5 | C#Cc1c(F)ccc2cc(O)cc(-c3nc4c5c(nc(OC[C@@]67CCCN6C[C@H](F)C7)nc5c3F)N(C(C)c3cccnc3N)[C@@H](C)CO4)c12 (single isomer, unassigned) [Compound 274, 4-((S)-10-((R or S)-1-(2-aminopyridin-3-yl)ethyl)-4-fluoro-2-(((2R,7aS)-2-fluorotetrahydro-1H-pyrrolizin-7a(5H)-yl)methoxy)-9-methyl-9,10-dihydro-8H-7-oxa-1,3,6,10-tetraazacyclohepta[de]naphthalen-5-yl)-5-ethynyl-6-fluoronaphthalen-2-ol] | 5 | 8 | 13
6 | CC(c1cccnc1N)N1c2nc(OC[C@@]34CCCN3C[C@H](F)C4)nc3c(F)c(-c4cc(O)cc5ccc(F)c(F)c45)nc(c23)OC[C@@H]1C (single isomer, unassigned) [Compound 275, 4-((S)-10-((R or S)-1-(2-aminopyridin-3-yl)ethyl)-4-fluoro-2-(((2R,7aS)-2-fluorotetrahydro-1H-pyrrolizin-7a(5H)-yl)methoxy)-9-methyl-9,10-dihydro-8H-7-oxa-1,3,6,10-tetraazacyclohepta[de]naphthalen-5-yl)-5,6-difluoronaphthalen-2-ol] | 0.4 | 0.8 | 0.4
7 | CC(c1cccnc1N)N1c2nc(OC[C@@]34CCCN3C[C@H](F)C4)nc3c(F)c(-c4cc(O)cc5ccc(F)c(F)c45)nc(c23)OC[C@@H]1C (single isomer, unassigned) [Compound 276, 4-((S)-10-((R or S)-1-(2-aminopyridin-3-yl)ethyl)-4-fluoro-2-(((2R,7aS)-2-fluorotetrahydro-1H-pyrrolizin-7a(5H)-yl)methoxy)-9-methyl-9,10-dihydro-8H-7-oxa-1,3,6,10-tetraazacyclohepta[de]naphthalen-5-yl)-5,6-difluoronaphthalen-2-ol] | 77 | > 100 | > 100
8 | Cc1c(F)c(N)cc(-c2nc3c4c(nc(OC[C@@H]5C[C@@H](F)CN5C)nc4c2F)N(C(C)c2cccnc2N)[C@@H](C)CO3)c1C(F)(F)F (single isomer, unassigned) [Compound 277, 3-((R or S)-1-((S)-5-(5-amino-4-fluoro-3-methyl-2-(trifluoromethyl)phenyl)-4-fluoro-2-(((2S,4R)-4-fluoro-1-methylpyrrolidin-2-yl)methoxy)-9-methyl-8,9-dihydro-10H-7-oxa-1,3,6,10-tetraazacyclohepta[de]naphthalen-10-yl)ethyl)pyridin-2-amine] | 93 | > 100 | > 100

Now from value to molecule:

Row | IC50 [1] [nM] | IC50 [2] [nM] | IC50 [3] [nM] | SMILES
9 | 0.2 | 0.6 | 2 | Cc1c(F)c(N)cc(-c2nc3c4c(nc(OC[C@@H]5C[C@@H](F)CN5C)nc4c2F)N(C(C)c2cccnc2N)[C@@H](C)CO3)c1C(F)(F)F (single isomer, unassigned) [Compound 278, 3-((R or S)-1-((S)-5-(5-amino-4-fluoro-3-methyl-2-(trifluoromethyl)phenyl)-4-fluoro-2-(((2S,4R)-4-fluoro-1-methylpyrrolidin-2-yl)methoxy)-9-methyl-8,9-dihydro-10H-7-oxa-1,3,6,10-tetraazacyclohepta[de]naphthalen-10-yl)ethyl)pyridin-2-amine]
10 | 0.3 | 0.4 | 0.2 | CCc1c(F)ccc2cc(O)cc(-c3nc4c5c(nc(OC[C@@]67CCCN6C[C@H](F)C7)nc5c3F)N(C(C)c3cccnc3N)[C@@H](C)CO4)c12 (single isomer, unassigned) [Compound 279, 4-((S)-10-((R or S)-1-(2-aminopyridin-3-yl)ethyl)-4-fluoro-2-(((2R,7aS)-2-fluorotetrahydro-1H-pyrrolizin-7a(5H)-yl)methoxy)-9-methyl-9,10-dihydro-8H-7-oxa-1,3,6,10-tetraazacyclohepta[de]naphthalen-5-yl)-5-ethyl-6-fluoronaphthalen-2-ol]
11 | 6 | 11 | 5 | CCc1c(F)ccc2cc(O)cc(-c3nc4c5c(nc(OC[C@@]67CCCN6C[C@H](F)C7)nc5c3F)N(C(C)c3cccnc3N)[C@@H](C)CO4)c12 (single isomer, unassigned) [Compound 280, 4-((S)-10-((R or S)-1-(2-aminopyridin-3-yl)ethyl)-4-fluoro-2-(((2R,7aS)-2-fluorotetrahydro-1H-pyrrolizin-7a(5H)-yl)methoxy)-9-methyl-9,10-dihydro-8H-7-oxa-1,3,6,10-tetraazacyclohepta[de]naphthalen-5-yl)-5-ethyl-6-fluoronaphthalen-2-ol]
12 | 0.2 | 0.4 | 3 | Cc1cc(N)cc(-c2nc3c4c(nc(OC[C@@H]5C[C@@H](F)CN5C)nc4c2F)N(C(C)c2cccnc2N)[C@@H](C)CO3)c1C(F)(F)F (single isomer, unassigned) [Compound 282, 3-((R or S)-1-((S)-5-(5-amino-3-methyl-2-(trifluoromethyl)phenyl)-4-fluoro-2-(((2S,4R)-4-fluoro-1-methylpyrrolidin-2-yl)methoxy)-9-methyl-8,9-dihydro-10H-7-oxa-1,3,6,10-tetraazacyclohepta[de]naphthalen-10-yl)ethyl)pyridin-2-amine]
13 | 55 | > 100 | > 100 | Cc1cc(N)cc(-c2nc3c4c(nc(OC[C@@H]5C[C@@H](F)CN5C)nc4c2F)N(C(C)c2cccnc2N)[C@@H](C)CO3)c1C(F)(F)F (single isomer, unassigned) [Compound 283, 3-((R or S)-1-((S)-5-(5-amino-3-methyl-2-(trifluoromethyl)phenyl)-4-fluoro-2-(((2S,4R)-4-fluoro-1-methylpyrrolidin-2-yl)methoxy)-9-methyl-8,9-dihydro-10H-7-oxa-1,3,6,10-tetraazacyclohepta[de]naphthalen-10-yl)ethyl)pyridin-2-amine]
14 | 0.2 | 0.5 | 0.3 | C#Cc1c(F)ccc2cc(O)cc(-c3nc4c5c(nc(OC[C@@H]6C[C@@H](F)CN6C)nc5c3F)N(C(C)c3cccnc3N)[C@@H](C)CO4)c12 (single isomer, unassigned) [Compound 284, 4-((S)-10-((R or S)-1-(2-aminopyridin-3-yl)ethyl)-4-fluoro-2-(((2S,4R)-4-fluoro-1-methylpyrrolidin-2-yl)methoxy)-9-methyl-9,10-dihydro-8H-7-oxa-1,3,6,10-tetraazacyclohepta[de]naphthalen-5-yl)-5-ethynyl-6-fluoronaphthalen-2-ol]
